Results reported in patent US20060069132A1, “Azolecarboxamide herbicides” (priority 2004, published 2006).

Columns and labels:
[1] = tested on: cocklebur; assay: Test C pre-/postemergence herbicide test; format: in vivo, Xanthium strumarium; details: for Plant response rating, Cocklebur: preemergence
Summary of the method: (§1)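 Pre- and postemergence application, solvent/surfactant formulation; post at 1- to 4-leaf stage (2–18 cm). Greenhouse 12–14 d. Visual rating vs controls, 0 = no effect, 100 = complete control.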

[2] = tested on: large crabgrass; assay: Test A pre-/postemergence herbicide test; format: in vivo, Digitaria sanguinalis
Summary of the method: (§2)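 Visual injury rating on a 0–100 scale (0 no effect, 100 complete control) versus untreated controls, about ten days after treatment in greenhouse. Pre: directed soil spray onto seeded sandy loam. Post: spray to runoff on plants 2–10 cm tall at one- to two-leaf stage.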

[3] = tested on: giant foxtail; assay: Test C pre-/postemergence herbicide test; format: in vivo, Setaria faberi; details: preemergence
Summary of the method: as §1

[4] = tested on: velvetleaf; assay: Test A pre-/postemergence herbicide test; format: in vivo, Abutilon theophrasti
Summary of the method: as §2

[5] = tested on: common (oilseed) sunflower; assay: Test C pre-/postemergence herbicide test; format: in vivo, Helianthus annuus; details: preemergence
Summary of the method: as §1

[6] = tested on: Surinam grass; assay: Test C pre-/postemergence herbicide test; format: in vivo, Urochloa decumbens; details: preemergence
Summary of the method: as §1

[7] = tested on: kochia; assay: Test C pre-/postemergence herbicide test; format: in vivo, Kochia scoparia; details: preemergence
Summary of the method: as §1

[8] = tested on: corn; assay: Test C pre-/postemergence herbicide test; format: in vivo, Zea mays; details: 250 g ai/ha; scale 0-100; preemergence
Summary of the method: as §1

[9] = tested on: bermudagrass; assay: Test C pre-/postemergence herbicide test; format: in vivo, Cynodon dactylon; details: for Plant response rating, Bermudagrass: preemergence
Summary of the method: as §1

[10] = tested on: goosegrass; assay: Test C pre-/postemergence herbicide test; format: in vivo, Eleusine indica; details: preemergence
Summary of the method: as §1

[11] = tested on: large crabgrass; assay: Test C pre-/postemergence herbicide test; format: in vivo, Digitaria sanguinalis; details: preemergence
Summary of the method: as §1

[12] = tested on: barnyardgrass; assay: Test A pre-/postemergence herbicide test; format: in vivo, Echinochloa crus-galli
Summary of the method: as §2

[13] = 125 g ai/ha, scale 0 (no effect) to 100 (complete control), visual, 12 to 14 days
[14] = Preemergence, 500 g ai/ha, scale 0 to 100, 0 no effect, 100 complete control
[15] = Postemergence, 500 g ai/ha, 0 to 100 scale, 0 no effect, 100 complete control
[16] = Postemergence, 2000 g ai/ha, 0 to 100 scale, 0 no effect, 100 complete control
[17] = Preemergence, 2000 g ai/ha, visual rating, 0 to 100 scale (0 no effect, 100 complete control)
[18] = preemergence, 500 g ai/ha, visual injury, 0 to 100 scale (0 no effect, 100 complete control)
[19] = 500 g ai/ha, scale 0 to 100 (0 no effect, 100 complete control), visual, 12 to 14 days

## CCn1nc(C(C)(C)C)cc1C(=O)Nc1cncc(C(=O)N(C)C)n1 [Compound 287]
[1]; 62 g ai/ha, scale 0 to 100
  Plant response rating, Cocklebur: 0
[1]; [13]
  Plant response rating, Cocklebur: 0
[1]; 250 g ai/ha, scale 0-100
  Plant response rating, Cocklebur: 10
[1]; [14]
  Cocklebur plant response rating: 60
[2]; [15]
  Crabgrass, Large plant response rating: 10
[2]; [16]
  Plant response rating, Crabgrass, Large: 60
[2]; [17]
  Crabgrass, Large plant response rating: 100
[2]; [18]
  Crabgrass, Large plant response rating: 75
[3]; 62 g ai/ha, scale 0 to 100
  Plant response rating, Foxtail, Giant: 0
[3]; [13]
  Plant response rating, Foxtail, Giant: 70
[3]; 250 g ai/ha, scale 0-100
  Plant response rating, Foxtail, Giant: 85
[3]; [19]
  Plant response rating, Foxtail, Giant: 100
[4]; [15]
  Velvetleaf plant response rating: 55
[4]; [16]
  Plant response rating, Velvetleaf: 65
[4]; [17]
  Velvetleaf plant response rating: 100
[4]; [18]
  Velvetleaf plant response rating: 50
[5]; 62 g ai/ha, scale 0 to 100
  Plant response rating, Sunflower: 90
[5]; 250 g ai/ha, scale 0-100
  Plant response rating, Sunflower: 100
[5]; [19]
  Plant response rating, Sunflower: 100
[6]; 250 g ai/ha, scale 0-100
  Plant response rating, Surinam Grass: 65
[6]; [19]
  Plant response rating, Surinam Grass: 95
[7]; 62 g ai/ha, scale 0 to 100
  Plant response rating, Kochia: 85
[7]; [13]
  Plant response rating, Kochia: 100
[7]; 250 g ai/ha, scale 0-100
  Plant response rating, Kochia: 100
[7]; [19]
  Plant response rating, Kochia: 100
[8]
  Plant response rating, Corn: 50
[9]; 62 g ai/ha, scale 0 to 100, 0 no effect, 100 complete control
  Plant response rating, Bermudagrass: 85
[9]; [13]
  Plant response rating, Bermudagrass: 95
[9]; 250 g ai/ha, scale 0-100
  Plant response rating, Bermudagrass: 95
[9]; [14]
  Bermudagrass plant response rating: 95
[10]; 62 g ai/ha, scale 0 to 100
  Plant response rating, Goosegrass: 70
[10]; [13]
  Plant response rating, Goosegrass: 100
[10]; 250 g ai/ha, scale 0-100
  Plant response rating, Goosegrass: 100
[10]; [19]
  Plant response rating, Goosegrass: 100
[11]; 62 g ai/ha, scale 0 to 100
  Plant response rating, Crabgrass, Large: 65
[11]; [13]
  Plant response rating, Crabgrass, Large: 95
[11]; 250 g ai/ha, scale 0-100
  Plant response rating, Crabgrass, Large: 95
[11]; [19]
  Plant response rating, Crabgrass, Large: 100
[12]; [15]
  Barnyardgrass plant response rating: 70
[12]; [16]
  Plant response rating, Barnyardgrass: 90
[12]; [17]
  Barnyardgrass plant response rating: 100
[12]; [18]
  Barnyardgrass plant response rating: 95
